The values that follow come from a melting point compilation (Tetko et al.; mined from patent text by program, amines drawn as free bases though some values may be those of a salt).

Bounds are passed on as bounds.

Usually melting point stands for the temperature of the solid-liquid transition.

The compound `CCOC(=O)c1c2ccc(Cl)cc2c(-c2ccccc2)n1CCCOS(C)(=O)=O` had a melting point of 91 to 92 °C.
Take `CN(C(=O)COc1nc2c(F)cccc2s1)c1ccccc1`: the melting point worked out at 94 °C.
Take `NC(=S)Nc1cc(Cl)cc(Cl)c1`: the melting point was determined as 180 °C.
The same measure for `COc1c(C#Cc2ccccc2)c(=O)c2ccc(Cl)cc2[nH]c1=O`: 204 to 205 °C; for `C[C@H]1CN(c2nc(-c3ccccc3)nc3ccccc23)[C@@H](C)CN1c1ccccn1` (relative stereo): 68 to 70 °C; for `O=C(c1ccc(-c2ccccc2)cc1)N1Cc2ccccc2Nc2ccccc21`: 180 to 182 °C.
Take `O=C1NCCC12CCCN2Cc1ccccc1` (stereo not drawn): the melting point was in the range of 152 to 153 °C.
Regarding `COC(=O)c1ccc2[nH]c(=O)oc2c1`, the melting point was 149 to 151 °C.
In turn, `COc1ccc(-c2noc3c2CCC(C(=O)O)CC3)cc1` (stereo not drawn) registered a melting point of 147 to 148 °C.
`Nc1ncnc2c1c(-c1ccc(Oc3ccccc3)cc1)cn2C1COCC1O` (stereo not drawn): the melting point lay in the range of 234 to 236 °C.
With `CNC(=O)c1nc2ccc3c(c2c(-c2ccc4c(c2)OCO4)c1C)OCO3`, the melting point lay within 141 to 146 °C.
`CC(c1oc2ccccc2c(=O)c1-c1cccc(F)c1)n1nc(-c2ccc(N)cc2)c2c(N)ncnc21` (stereo not drawn) yielded a melting point of 91 to 94 °C.
The compound `Cc1cccc(-c2[nH]c(C(C)C)nc2-c2ccc(F)c(-c3cc[nH]c3)c2)n1` yielded a melting point of 106 to 110 °C.
With `CCOC(=O)C(C#N)=CNc1ccc(C=C(C#N)C(=O)OCC)o1`, the melting point lay within 206 to 208 °C.
`O=Cc1cc2n(n1)CCOC2=O` showed a melting point of 135 to 136 °C.
`CCOC(=O)N1C(=S)NC(C)=C(C(=O)OC)C1c1cccc(Cl)c1Cl` (stereo not drawn) gave a melting point of 190 to 191 °C.
Compound `CC(Oc1ncn(-c2ccc(C(F)(F)F)cc2)n1)C(=O)NC1CC1` (stereo not drawn) yielded a melting point of 175 to 177 °C.
`CCCC(=O)c1cnn(C)c1S(N)(=O)=O` showed a melting point of 97 to 99 °C.
The same measure for `OCc1ccc(Cn2c(CC3CCN(Cc4ccccc4)CC3)nc3ccccc32)o1`: 144 °C; for `CC(C)(CO)C(O)(Cn1cncn1)c1ccc(Cl)cc1` (stereo not drawn): 120 to 135 °C; for `CN(C)CCNC(=O)c1ccc(-c2cccc(CSCCOc3ccccc3)c2)cc1`: 75 to 78 °C.
`CC(=O)CCCCCCCCc1ccc(O)c(O)c1` came in with a melting point of 74 to 76 °C.
On to `CN(C)CCCn1c2ccc(O)cc2c2c3c(c(-c4ccccc4)cc21)C(=O)NC3=O`, for which the melting point was in the range of 185 to 189 °C.
Regarding `COc1ccc(CNC(=O)c2[nH]c(C)c(-c3nc4ccc(C(=O)c5ccccc5)cc4[nH]3)c2C)cc1OC`, the melting point fell in the range of 120 to 122 °C.
`CN(C)c1ccc(NC(=O)N(C[C@H]2CCC[C@H](CN(C(=O)Nc3ccc(N(C)C)cc3)C3CCCCCC3)C2)C2CCCCCC2)cc1` (relative stereo) returned a melting point of 109 to 114 °C.
`CC(=O)CN(c1ccc(Cl)cc1)S(C)(=O)=O` had a melting point of 108 °C.
Take `CCCCc1nc(CO)c(C(=O)N2CCC[C@H]2C(=O)OC)n1Cc1ccc(-c2ccccc2C(=O)O)cc1`: the melting point was greater than 120 °C.
The value for `CCOC(=O)C(C(=O)Nc1nccs1)C(=O)c1cccc(C(F)(F)F)c1NC(=O)C(Cl)C(C)C` (stereo not drawn) was 160 °C.
In turn, `COC(=O)c1c(-c2ccccc2)oc2c(CCl)cccc2c1=O` displayed a melting point of 150 °C.
Consider `CC(C)Cc1cc(C(=O)N2CCN(CC(C)C)CC2)ccc1OCc1ccc(F)cc1`, for which the melting point was 77 to 78 °C.
The same measure for `NC=C1C(=O)N(c2cccc(Cl)c2)c2ccccc21`: 141 to 143 °C.
On to `CCC(=O)c1cnc2c(OCCO)cccc2c1Nc1ccccc1C`, for which the melting point is 174 to 176 °C.
`CSc1nc2ccc(Cl)cc2c(-c2ccccc2)c1N`: the melting point lay in the range of 115 to 117 °C.
In the case of `FC(F)(F)c1cccc(N2CCN(CCCCNc3cc(-c4ccccc4)ccn3)CC2)c1`, the melting point turned out to be 120 °C.
The value for `CCOC(=O)c1cn(-c2csnn2)c2nc(Cl)c(F)cc2c1=O` was 188 to 192 °C; that for `Cn1nc(-c2ccc3c(c2)CCN(C2CCC2)CC3)ccc1=O` was 287 to 288 °C.
In turn, `Cc1ccc(Cc2cnc(NCCN(Cc3ccccc3)c3ccccn3)[nH]c2=O)cn1` came in with a melting point of 178 to 182 °C.
The value for `COC(=O)C(Sc1ccc(Cl)cc1)c1ccc(Oc2ccc(Cl)cc2)cc1` (stereo not drawn) was 71 to 75 °C.
As for `COC(=O)Cc1coc(-c2cc(C(C)(C)C)c(O)c(C(C)(C)C)c2)n1`, the melting point lay within 126 to 128 °C.
Compound `CCCCCCCCCCCCn1c(=O)c(=O)[nH]c2c3ccccc3ccc21` had a melting point of 180 °C.
The value for `O=C1N[C@H](Cc2ccc(F)cc2)[C@H](c2ccc(C(F)(F)F)cc2)O1` (racemic) was 160 to 161 °C; that for `COc1cc(OC)nc(NC(=O)NS(=O)(=O)Oc2ccccc2-c2nnco2)n1` was 161 to 164 °C.
Turning to `O=C(Nc1nc(C(F)(F)C(F)(F)F)c(I)s1)c1cc(C(F)(F)F)cc(C(F)(F)F)c1`, the melting point was in the range of 143 to 144 °C.
As for `COCN(C(=O)CCl)c1c(OC)cccc1OC`, the melting point fell in the range of 104 to 106 °C.
On to `Clc1cccc(C(Cl)Cl)n1`, for which the melting point is 48 to 52 °C.
The value for `COC(=O)CCCOc1cc(C(C)C)c2c(c1)S(=O)(=O)N(COC(=O)c1ccccc1)C2=O` was 122 to 124 °C; that for `COc1nc2ccccc2nc1NC(=O)N1CCN(c2cc(C)cc(C)c2)CC1` was 155 to 157 °C; that for `CCCCCCCCCCCCCCCCCCC(CO)CO` was 88 °C.
In the case of `Nc1nc(N)c(CCCc2cccc3ccccc23)c(N)n1`, the melting point fell in the range of 181 to 183 °C.
The value for `NC(=O)c1ccc(Nc2ccncc2)cc1` was 223 to 226 °C; that for `CC(C)CC(CS)C(N)=O` (stereo not drawn) was 147 to 154 °C.
The same measure for `CC(C)(C)c1ccc(C=CC2=CC(c3ccc(C(C)(C)C)cc3)N(c3ccccc3)N2)cc1` (stereo not drawn): 188 to 192 °C.
`CC(c1ccc(-c2ccccc2)c(F)c1)c1csc(N)n1` (stereo not drawn) had a melting point of 167 to 168 °C.
In turn, `CCn1nc(-c2sc(C(=O)NCc3ccccn3)nc2-c2ccccc2)ccc1=O` showed a melting point of 169 to 170 °C.
With `CCOCc1nc2c(N)nc(C)c(C)c2n1CCC1CCN(Cc2ccccc2)CC1`, the melting point lay within 165 to 167 °C.
With `Cc1ccnc(N2CCN(C(=O)CCCC3Cn4c(-c5cc(C)c(O)c(C)c5)c(C)c5cccc(c54)O3)CC2)c1` (stereo not drawn), the melting point came out at 112 °C.
For the compound `CCNC(=O)c1c(-c2ccccc2)cccc1[Si](C)(C)C`, the melting point was in the range of 159 to 160 °C.
The same measure for `O=C(O)CCCCCCc1ccc2ccccc2c1[N+](=O)[O-]`: 84 to 89 °C; for `Cc1nc(C(=O)NCCO[N+](=O)[O-])c(C)s1`: 114 to 116 °C; for `COc1ccc2c(c1)NC(=O)N(c1ccc(Cl)cc1)S2(=O)=O`: 229 to 230 °C.
Consider `COC(=O)C1=C(C)NC(CCn2ccnc2)=C(C(=O)OC)C1c1cccc(Cl)c1Cl` (stereo not drawn), for which the melting point is 180 to 182 °C.
The same measure for `CCOC(=O)C(CC=C(C)C=CC1=C(C)CCCC1(C)C)C(C)=O` (stereo not drawn): 152 °C; for `O=c1[nH]c(=O)n(Cc2ccc(OCCc3coc(-c4ccccc4)n3)cc2)[nH]1`: 224 to 230 °C.
As to `COc1ccc(C2CC(=O)N(c3ccncc3)C2=O)cc1` (stereo not drawn), the melting point lay within 179 to 180 °C.
`CC(C)Cn1c(=O)n(C)c(=O)c2c(Sc3nnc[nH]3)c(Cc3csc4ccccc34)sc21` gave a melting point of 237 to 238 °C.
Compound `COc1cccc(C2CCC(O)O2)c1` (stereo not drawn) had a melting point of 76.5 to 78 °C.
In the case of `Cc1cccc(Nc2ncnc3ccc(-n4cnc5ccccc54)cc23)c1`, the melting point was 245 to 246 °C.
In the case of `CCOc1cc(NC(=O)NS(=O)(=O)c2ccc(C)cc2)ccn1`, the melting point was in the range of 146 to 148 °C.
The compound `Oc1cc(-c2ccccc2)nc2nn(-c3ccccc3)cc12` gave a melting point of 280 to 281 °C.
The compound `COc1ccc(-c2cc(OC3SCC(OC(C)=O)C(OC(C)=O)C3OC(C)=O)ccn2)cc1` (stereo not drawn) gave a melting point of 113 to 114 °C.
As to `NCCc1csc(N)n1`, the melting point fell in the range of 69 to 71 °C.
Regarding `COc1ccc(-n2nc(Sc3ccccc3C)c(C)c(C#N)c2=O)cc1`, the melting point fell in the range of 144 to 146 °C.
In the case of `COc1ccc(-c2cc(CBr)c(=O)n(Cc3ccc(F)cc3)n2)cc1F`, the melting point was in the range of 120 to 125 °C.
As for `COc1ccc(CN2C(=O)CCc3cc(O)c(OC)cc32)cc1`, the melting point lay within 168 to 169 °C.
Turning to `COc1ccc2c(c1)C=C(/C=C/C=C/C=C/C(=O)O)CO2`, the melting point fell in the range of 250 to 252 °C.
The value for `COc1cc(N(C)C)c(Cl)cc1C(=O)NC1CCN(Cc2ccc(F)cc2)C1` (stereo not drawn) was 139 to 141 °C; that for `CCOC(=O)CN(C)C(=S)CCc1nc2c(F)c(F)cc(F)c2s1` was 83 to 85 °C; that for `Cc1c(C)c2c(c(C)c1OC(=O)c1ccccc1)SC(CCCOC(=O)c1ccccc1)O2` (stereo not drawn) was 114 to 116 °C.
In turn, `OC1CCC(c2ccc(OCCCCCCCCCCCBr)cc2)CC1` (stereo not drawn) came in with a melting point of 100 to 101 °C.
`OCC[C@@H]1CCCC[C@@H]1c1ccccc1` (relative stereo) showed a melting point of 48 to 50 °C.
`NC(=O)c1nnsc1Nc1ccccc1` showed a melting point of 195 to 197 °C.
The same measure for `CCCCc1ccc(C2(C)OC(=C(C#N)C#N)C(C#N)=C2C)cc1` (stereo not drawn): 129 to 130 °C; for `COc1cc(OC)nc(Oc2ccccc2C=NO)n1`: 125 to 128 °C.
Regarding `CC(C)(Oc1ccc(COCc2ccc3cn(-c4ccc(C(F)(F)F)cc4)nc3c2)cc1)C(=O)O`, the melting point lay within 129 to 131 °C.
The value for `CNc1c(F)c(C)c2c(=O)c(C(=O)O)cn(-c3cc(N)c(F)cc3F)c2c1C` was 247 to 253 °C.
For the compound `COc1cccc(OC)c1C(=O)P(=S)(C(=O)c1c(OC)cccc1OC)c1ccccc1`, the melting point worked out at 155 °C.
`O=C(Nc1ccc(-n2nc(C(F)(F)F)cc2C(F)(F)F)c(C(F)(F)F)c1)c1ccc(Cl)cc1`: the melting point was 65 to 67 °C.
`O=S(=O)(Cl)c1ccc(Nc2nccc(Cl)n2)cc1` registered a melting point of 192 to 195 °C.
